Earlier results as cited in US8133908B2, “Heteroaryl derivatives of N-{[(1S,4S,6S)-3-(2-pyridinylcarbonyl)-3-azabicyclo[4.1.0]hept-4-yl]methyl}-2-amine” (Glaxo Group Limited, priority 2008, dated 2012).
No end group written: not given here.

Experiments:
orexin-A receptor(s) = conditions: central administration, freely-feeding rats, 4 hour time period
orexin receptors = conditions: rats, central administration at the onset of the normal sleep period
orexin receptor = conditions: rats

orexin-A: ligand for the orexin-1 receptor; an agonist of the orexin receptors (QPLPDCCRQKTCSCRLYELLHGAGNHAAGILTL; ends and bridges not checked; cysteine pairing not given here; UniProt O43612 34-66, looked up)
increase of food intake over control rats receiving vehicle (orexin-A receptor(s)): approximately four-fold | arousal (orexin receptors): dose-related increase in arousal

Cc1nc2ccc(NC(=O)Nc3ccnc4cccnc34)cc2o1 [SB334867]
hedonic eating (orexin receptor): potently reduced | high-fat pellet self-administration (orexin receptor): attenuated
